Results: US11065211B2, “Isoxylitones mediated neurogenesis” (priority 2018, dated 2021)

Tested on: cortical cells and hippocampal cells
Experiment: MTT assay, in vitro screening of compounds for cell proliferation activity
Assay type: cell-based, rat
Details: 24 hrs treatment
From the text: The Tetrazolium MTT [3-(4, 5-dimethyl thiazol-2-yl)-2,5-diphenyl tetrazolium bromide] Assay: MTT assay was used to screen various compounds for their proliferating effect on cortical cells and hippocampal cells. The principle of MTT test is based on the ability of live cells to form insoluble purple formazan product from the breakdown of the water soluble yellow tetrazolium salt by mitochondrial enzyme succinate dehydrogenase (Mosmann, 1983). The resulting intracellular purple formazan can quantify by spectrophotometric means. The MTT Cell Proliferation Assay measures the cell proliferation rate and conversely, when metabolic events lead to apoptosis or necrosis, the reduction in cell viability.
The density of the cortical and hippocampal cells was adjusted at the density 2×10^5 cells/mL in complete DMEM medium (5% FBS). The cells (5000/well) were then plated in 96-wells plate and incubated for 24 hrs at 37° C. with 5% CO2. Following 24 hrs incubation, media was removed and 100 μL of each test compounds in DMEM media (5% FBS) were added. […] The culture plates were re-incubated for 24 hrs at 37° C. in 5% CO2. Cells treated with 0.1% DMSO in complete media (5% FBS) were used as vehicle controls. […] The absorbance was read at 495 nm on spectrophotometer. […] The percent rate of proliferation was calculated using the following formula, % rate of proliferation={(At−Ab)/(Ac−Ab)}×100

CC1=CC(=CC(=O)O)CC(C)(C)C1 (mixture of isomers) [acid analog, (E/Z)-2-(3,5,5-trimethylcyclohex-2-enylidene)acetic acid]
activity on the cell proliferation (MTT screening): significant potent activity of isoxylitones followed by acid analog
